One assay has as its target SAE (Homo sapiens (Human), UniProt Q9UBT2). Briefly: In vitro inhibitory activity assay against SAE (SUMO-2/3 immunofluorescence in HCT116 cells). The class given is cell-based. The following applies: 6 h incubation, class symbols, read-out: SUMO IF IC50. The procedure, abridged:
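HCT116 cells treated with compounds for 6 h at 37 °C, then fixed, permeabilized and immunostained for SUMO-2/3 with FITC secondary detection. Fluorescence compared with DMSO control to give inhibition rate and IC50.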
Sequence of SAE (Q9UBT2 whole entry): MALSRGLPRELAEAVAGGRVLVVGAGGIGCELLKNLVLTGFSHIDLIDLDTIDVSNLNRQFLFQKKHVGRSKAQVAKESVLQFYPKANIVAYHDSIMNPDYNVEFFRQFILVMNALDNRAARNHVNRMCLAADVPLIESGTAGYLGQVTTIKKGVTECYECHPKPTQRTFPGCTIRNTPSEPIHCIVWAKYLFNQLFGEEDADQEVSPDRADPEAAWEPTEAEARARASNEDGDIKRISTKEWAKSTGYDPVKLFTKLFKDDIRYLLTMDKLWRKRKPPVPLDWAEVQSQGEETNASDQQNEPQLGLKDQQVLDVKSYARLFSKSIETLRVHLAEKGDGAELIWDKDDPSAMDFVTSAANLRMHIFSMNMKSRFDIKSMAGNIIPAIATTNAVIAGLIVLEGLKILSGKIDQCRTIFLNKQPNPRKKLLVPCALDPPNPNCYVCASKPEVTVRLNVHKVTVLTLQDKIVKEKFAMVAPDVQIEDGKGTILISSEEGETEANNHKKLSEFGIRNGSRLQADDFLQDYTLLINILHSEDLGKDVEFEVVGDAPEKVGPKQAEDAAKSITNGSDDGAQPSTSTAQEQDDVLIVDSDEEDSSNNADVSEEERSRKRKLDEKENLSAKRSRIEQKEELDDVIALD
Sequence of SAE (Q9UBE0 whole entry partner): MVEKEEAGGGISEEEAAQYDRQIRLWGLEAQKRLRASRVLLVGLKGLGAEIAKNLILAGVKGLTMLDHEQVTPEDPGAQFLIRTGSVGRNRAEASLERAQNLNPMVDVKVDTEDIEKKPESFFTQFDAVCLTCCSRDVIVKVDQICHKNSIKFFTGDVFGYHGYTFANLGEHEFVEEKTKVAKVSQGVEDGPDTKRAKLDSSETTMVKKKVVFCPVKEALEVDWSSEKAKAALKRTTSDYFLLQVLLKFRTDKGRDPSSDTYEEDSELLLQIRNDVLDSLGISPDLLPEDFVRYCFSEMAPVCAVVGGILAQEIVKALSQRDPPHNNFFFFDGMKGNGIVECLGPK
For the molecule `Cc1ccc2c(c1)[C@@]1(CCc3sc(C(=O)c4cncnc4N[C@@H]4C[C@H](COS(N)(=O)=O)[C@@H](O)C4)cc31)NCC2` [Compound 223], the IC50 (commonly the concentration that inhibits the measured activity by half) was in the range of 50 to 200 nM.

Turning to `NS(=O)(=O)OC[C@H]1C[C@@H](Nc2ncncc2C(=O)c2cc3c(s2)OCCC32NCCc3ccc(Cl)cc32)C[C@@H]1O` (stereo partly drawn) [Compound 38], the IC50 was in the range of 50 to 200 nM.

On to `NS(=O)(=O)OC[C@H]1C[C@@H](Nc2ncncc2C(=O)c2cc3c(s2)CCC[C@@]32OCCc3ccc(F)cc32)C[C@@H]1O` [Compound 248], for which the IC50 is more than 200 nM.

As to `NS(=O)(=O)OC[C@H]1C[C@@H](Nc2ncncc2C(=O)c2cc3c(s2)CCC[C@]32NCC3(CC3)c3ccc(Cl)cc32)C[C@@H]1O` [Compound 219], the IC50 was not above 50 nM.

With `CN1Cc2sc(C(=O)c3cncnc3N[C@@H]3C[C@H](COS(N)(=O)=O)[C@@H](O)C3)cc2[C@@]2(C1)OCCc1ccccc12` [Compound 254], the IC50 was more than 200 nM.

With `CCN1Cc2sc(C(=O)c3cncnc3N[C@@H]3C[C@H](COS(N)(=O)=O)[C@@H](O)C3)cc2C2(C1)OCCc1ccc(F)cc12` (stereo partly drawn) [Compound 262], the IC50 lay within 50 to 200 nM.

As to `CCN1Cc2sc(C(=O)c3cncnc3N[C@@H]3C[C@H](COS(N)(=O)=O)[C@@H](O)C3)cc2[C@]2(C1)OCCc1ccc(F)cc12` [Compound 264], the IC50 was not above 50 nM.

Regarding `C=CCN1Cc2sc(C(=O)c3cncnc3N[C@@H]3C[C@H](COS(N)(=O)=O)[C@@H](O)C3)cc2C2(C1)NCCc1ccc(Cl)cc12` (stereo partly drawn) [Compound 190], the IC50 is not above 50 nM.

As for `N#Cc1ccc2c(c1)C1(CCc3sc(C(=O)c4cncnc4N[C@@H]4C[C@H](COS(N)(=O)=O)[C@@H](O)C4)cc31)NCC2` (stereo partly drawn) [Compound 52], the IC50 lay in the range of 50 to 200 nM.

Regarding `NS(=O)(=O)OC[C@H]1C[C@@H](Nc2ncncc2C(=O)c2cc3c(s2)CC[C@@]32OCCc3ccc(Cl)cc32)C[C@@H]1O` [Compound 242], the IC50 is more than 200 nM.

In the case of `CC(C)N1Cc2sc(C(=O)c3cncnc3N[C@@H]3C[C@H](COS(N)(=O)=O)[C@@H](O)C3)cc2[C@@]2(C1)OCCc1ccc(F)cc12` [Compound 269], the IC50 was more than 200 nM.

Consider `NS(=O)(=O)OC[C@H]1C[C@@H](Nc2ncncc2C(=O)c2cc3c(s2)C=CC32OCCc3ccccc32)C[C@@H]1O` (stereo partly drawn) [Compound 289], for which the IC50 was 50 to 200 nM.

For the molecule `NS(=O)(=O)OC[C@H]1C[C@@H](Nc2ncncc2C(=O)c2cc3c(s2)COC[C@@]32NCCc3ccc(Cl)c(Cl)c32)C[C@@H]1O` [Compound 95], the IC50 is more than 200 nM.

Regarding `NS(=O)(=O)OC[C@H]1C[C@@H](Nc2ncncc2C(=O)c2cc3c(s2)C=C[C@]32OCCc3ccccc32)C[C@@H]1O` [Compound 291], the IC50 is 50 to 200 nM.

Consider `NS(=O)(=O)OC[C@H]1C[C@@H](Nc2ncncc2C(=O)c2cc3c(s2)CCC[C@]32NCCc3ccc(C4CC4)cc32)C[C@@H]1O` [Compound 203], for which the 50% inhibitory concentration (IC50) was 50 to 200 nM.

As for `NS(=O)(=O)OC[C@H]1C[C@@H](Nc2ncncc2C(=O)c2cc3c(s2)CCC32NCC(=O)c3ccc(Cl)cc32)C[C@@H]1O` (stereo partly drawn) [Compound 83], the IC50 lay in the range of 50 to 200 nM.

With `NS(=O)(=O)OC[C@H]1C[C@@H](Nc2ncncc2C(=O)c2cc3c(s2)COCC32NCCc3c(F)cc(Cl)cc32)C[C@@H]1O` (stereo partly drawn) [Compound 109], the IC50 was 50 to 200 nM.

As for `NS(=O)(=O)OC[C@H]1C[C@@H](Nc2ncncc2C(=O)c2cc3c(s2)CCC[C@@]32NCCc3ncc(Cl)cc32)C[C@@H]1O` [Compound 140], the IC50 is more than 200 nM.

For the molecule `NS(=O)(=O)OC[C@H]1C[C@@H](Nc2ncncc2C(=O)c2nc3c(s2)CCC[C@]32NCCc3ccc(Cl)cc32)C[C@@H]1O` [Compound 126], the IC50 was more than 200 nM.

With `NS(=O)(=O)OC[C@H]1C[C@@H](Nc2ncncc2C(=O)c2cc3c(s2)CCCC32OCCc3ccc(F)cc32)C[C@@H]1O` (stereo partly drawn) [Compound 247], the IC50 fell in the range of 50 to 200 nM.

Regarding `NS(=O)(=O)OC[C@H]1C[C@@H](Nc2ncncc2C(=O)c2cc3c(s2)CCC[C@@]32NC(=O)Cc3ccc(Cl)cc32)C[C@@H]1O` [Compound 164], the IC50 is more than 200 nM.

Regarding `CC1=C[C@@]2(NCCc3ccc(Cl)cc32)c2cc(C(=O)c3cncnc3N[C@@H]3C[C@H](COS(N)(=O)=O)[C@@H](O)C3)sc21` [Compound 158], the IC50 was more than 200 nM.

In the case of `NS(=O)(=O)OC[C@H]1C[C@@H](Nc2ncncc2C(=O)c2cc3c(s2)COC[C@]32NCCc3ccccc32)C[C@@H]1O` [Compound 15], the IC50 lay within 50 to 200 nM.

`NS(=O)(=O)OC[C@H]1C[C@@H](Nc2ncncc2C(=O)c2cc3c(s2)CC[C@]32OCCc3ccc(Cl)cc32)C[C@@H]1O` [Compound 243]: the IC50 is not above 50 nM.

On to `NS(=O)(=O)OC[C@H]1C[C@@H](Nc2ncncc2C(=O)c2cc3c(s2)COC32NCCc3ccc(Cl)cc32)C[C@@H]1O` (stereo partly drawn) [Compound 80], for which the 50% inhibitory concentration (IC50) lay within 50 to 200 nM.

Turning to `NS(=O)(=O)OC[C@H]1C[C@@H](Nc2ncncc2C(=O)c2cc3c(s2)COC[C@@]32NCCc3c(F)cc(Cl)cc32)C[C@@H]1O` [Compound 110], the IC50 was more than 200 nM.

For `CN1Cc2sc(C(=O)c3cncnc3N[C@@H]3C[C@H](COS(N)(=O)=O)[C@@H](O)C3)cc2C2(C1)OCCc1ccc(Cl)cc12` (stereo partly drawn) [Compound 259], the half-inhibitory concentration (IC50) was not above 50 nM.

As for `NS(=O)(=O)OC[C@H]1C[C@@H](Nc2ncncc2C(=O)c2cc3c(s2)CCC[C@]32NCCc3ncc(Cl)cc32)C[C@@H]1O` [Compound 141], the half-inhibitory concentration (IC50) was not above 50 nM.

Take `N#Cc1cc2c(cc1Cl)C1(CCCc3sc(C(=O)c4cncnc4N[C@@H]4C[C@H](COS(N)(=O)=O)[C@@H](O)C4)cc31)NCC2` (stereo partly drawn) [Compound 30]: the IC50 is 50 to 200 nM.

With `CC1=C[C@]2(NCCc3ccc(Cl)cc32)c2cc(C(=O)c3cncnc3N[C@@H]3C[C@H](COS(N)(=O)=O)[C@@H](O)C3)sc21` [Compound 159], the half-maximal inhibitory concentration (IC50) is not above 50 nM.

`CC(C)N1Cc2sc(C(=O)c3cncnc3N[C@@H]3C[C@H](COS(N)(=O)=O)[C@@H](O)C3)cc2C2(C1)NCCc1ccc(Cl)cc12` (stereo partly drawn) [Compound 184]: the IC50 is not above 50 nM.

With `NS(=O)(=O)OC[C@H]1C[C@@H](Nc2ncncc2C(=O)c2cc3c(s2)COC[C@@]32NCCc3cc(Cl)c(Cl)cc32)C[C@@H]1O` [Compound 98], the IC50 is more than 200 nM.

In the case of `NS(=O)(=O)OC[C@H]1C[C@@H](Nc2ncncc2C(=O)c2cc3c(s2)CCCC32NCCc3cc(Cl)c(F)cc32)C[C@@H]1O` (stereo partly drawn) [Compound 33], the IC50 fell in the range of 50 to 200 nM.

For `NS(=O)(=O)OC[C@H]1C[C@@H](Nc2ncncc2C(=O)c2cc3c(s2)C=C[C@]32OCCc3ccc(Cl)cc32)C[C@@H]1O` [Compound 297], the IC50 is not above 50 nM.

In the case of `NS(=O)(=O)OC[C@H]1C[C@@H](Nc2ncncc2C(=O)c2cc3c(s2)CCC32NCCc3ccccc32)C[C@@H]1O` (stereo partly drawn) [Compound 43], the IC50 was more than 200 nM.

On to `NS(=O)(=O)OC[C@H]1C[C@@H](Nc2ncncc2C(=O)c2cc3c(s2)C(=O)CC32NCCc3ccc(Cl)cc32)C[C@@H]1O` (stereo partly drawn) [Compound 166], for which the IC50 was 50 to 200 nM.

Take `NS(=O)(=O)OC[C@H]1C[C@@H](Nc2ncncc2C(=O)c2cc3c(s2)CC[C@@]32OCCc3ccccc32)C[C@@H]1O` [Compound 281]: the IC50 was more than 200 nM.

Take `NS(=O)(=O)OC[C@H]1C[C@@H](Nc2ncncc2C(=O)c2cc3c(s2)COCC32NCCc3ccc(F)cc32)C[C@@H]1O` (stereo partly drawn) [Compound 16]: the IC50 lay in the range of 50 to 200 nM.

With `NS(=O)(=O)OC[C@H]1C[C@@H](Nc2ncncc2C(=O)c2cc3c(s2)CC=C[C@]32NCCc3ccc(Cl)cc32)C[C@@H]1O` [Compound 217], the IC50 was not above 50 nM.

In the case of `N#Cc1ccc2c(c1)C1(CCc3sc(C(=O)c4cncnc4N[C@@H]4C[C@H](COS(N)(=O)=O)[C@@H](O)C4)cc31)OCC2` (stereo partly drawn) [Compound 286], the IC50 fell in the range of 50 to 200 nM.

In the case of `NS(=O)(=O)OC[C@H]1C[C@@H](Nc2ncncc2C(=O)c2cc3c(s2)OC[C@@]32NCCc3ccc(Cl)cc32)C[C@@H]1O` [Compound 62], the IC50 is more than 200 nM.

Consider `NS(=O)(=O)OC[C@H]1C[C@@H](Nc2ncncc2C(=O)c2nc3c(s2)CSCC32NCCc3ccc(Cl)cc32)C[C@@H]1O` (stereo partly drawn) [Compound 127], for which the IC50 was more than 200 nM.

For the molecule `NS(=O)(=O)OC[C@H]1C[C@@H](Nc2ncncc2C(=O)c2cc3c(s2)CCCC32NCC3(CC3)c3ccc(Cl)cc32)C[C@@H]1O` (stereo partly drawn) [Compound 39], the IC50 is 50 to 200 nM.

With `CCN1Cc2sc(C(=O)c3cncnc3N[C@@H]3C[C@H](COS(N)(=O)=O)[C@@H](O)C3)cc2C2(C1)NCCc1ccc(Cl)cc12` (stereo partly drawn) [Compound 181], the IC50 was not above 50 nM.

The same assay, now with this note: 6 h incubation, numeric values, read-out: SUMO IF IC50.
With `NS(=O)(=O)OC[C@H]1C[C@@H](Nc2ncncc2C(=O)c2cc3c(s2)CC[C@@]32NCCc3ccc(F)cc32)C[C@@H]1O` [Compound 50], the IC50 is more than 1000 nM.

Regarding `NS(=O)(=O)OC[C@H]1C[C@@H](Nc2ncncc2C(=O)c2cc3c(s2)CC[C@@]32NCCc3ccccc32)C[C@@H]1O` [Compound 44], the IC50 is more than 1000 nM.

For the molecule `NS(=O)(=O)OC[C@H]1C[C@@H](Nc2ncncc2C(=O)c2cc3c(s2)CN(CC(F)(F)F)C[C@@]32NCCc3ccc(Cl)cc32)C[C@@H]1O` [Compound 188], the concentration for half-maximal inhibition (IC50) was more than 1000 nM.

With `[2H]C1([2H])CN[C@@]2(CCCc3sc(C(=O)c4cncnc4N[C@@H]4C[C@H](COS(N)(=O)=O)[C@@H](O)C4)cc32)c2cc(Cl)ccc21` [Compound 200], the IC50 was more than 1000 nM.

As for `C#CCN1Cc2sc(C(=O)c3cncnc3N[C@@H]3C[C@H](COS(N)(=O)=O)[C@@H](O)C3)cc2[C@@]2(C1)NCCc1ccc(Cl)cc12` [Compound 194], the IC50 was more than 1000 nM.

In the case of `NS(=O)(=O)OC[C@H]1C[C@@H](Nc2ncncc2C(=O)c2cc3c(s2)CC[C@]32NCCc3ccc(F)cc32)C[C@@H]1O` [Compound 51], the IC50 turned out to be 50.7 nM.

On to `CC(C)N1Cc2sc(C(=O)c3cncnc3N[C@@H]3C[C@H](COS(N)(=O)=O)[C@@H](O)C3)cc2[C@]2(C1)NCCc1ccc(Cl)cc12` [Compound 186], for which the IC50 was determined as 16.3 nM.

(Values after patent publication US20260035382A1, “COMPOUNDS AS SUMO ACTIVATING ENZYME INHIBITORS” (WIGEN BIOMEDICINE TECHNOLOGY (SHANGHAI) CO., LTD., priority 2022, published 2026).)
